Data published in ChEMBL document CHEMBL1201862, “PubChem BioAssay data set” (2004).
The source made the active and inactive calls.

Assays:
[1] = HepG2 cell cytotoxicity, dose response, cytotoxicity control, plate reader, dry powder samples (AID 1159569); assay type: functional, cell-based;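 further: inhibitor potency with signal falling toward the positive control level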
[2] = P. falciparum 3D7-ScDHODH growth inhibitors, dose response, SYBR Green, dry powder samples (AID 1159570); assay type: functional, cell-based;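 further: parasite growth measured after 72 hours of compound exposure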
[3] = P. falciparum Dd2 growth inhibitors, dose response, SYBR Green, cherry-picked samples (AID 1159567); assay type: functional, cell-based
[4] = P. falciparum Dd2 growth inhibitors, dose response, SYBR Green, dry powder samples (AID 1159566); assay type: functional, cell-based;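 further: potency for growth inhibition with lower SYBR green DNA signal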
[5] = P. falciparum ATP4 D1247Y mutant growth inhibitors, dose response, NITD609-resistant line, SYBR Green, dry powder (AID 1159571); assay type: functional, cell-based;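 further: parasites synchronized at ring stage by sorbitol before testing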
[6] = HepG2 cell cytotoxicity, dose response, cytotoxicity control, cherry-picked samples (AID 1159577); assay type: functional, cell-based
[7] = cytotoxicity in HPDE-C7 cells, cell-based, fluorescence, HTS (AID 430); assay type: functional; settings: Homo sapiens
[8] = cytotoxicity in KRAS-transformed pancreatic duct cells, primary screen, cell-based, fluorescence, HTS (AID 431); assay type: functional; settings: Homo sapiens;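 further: cell line used: HPDE-C7K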
[9] = biological target: T1, Mannose-6-phosphate isomerase (Homo sapiens, UniProt P34949); assay: human PMI inhibitors, high substrate, primary screen, biochemical, fluorescence intensity, high mannose 6-phosphate (AID 1220)
T1 sequence (P34949 whole entry): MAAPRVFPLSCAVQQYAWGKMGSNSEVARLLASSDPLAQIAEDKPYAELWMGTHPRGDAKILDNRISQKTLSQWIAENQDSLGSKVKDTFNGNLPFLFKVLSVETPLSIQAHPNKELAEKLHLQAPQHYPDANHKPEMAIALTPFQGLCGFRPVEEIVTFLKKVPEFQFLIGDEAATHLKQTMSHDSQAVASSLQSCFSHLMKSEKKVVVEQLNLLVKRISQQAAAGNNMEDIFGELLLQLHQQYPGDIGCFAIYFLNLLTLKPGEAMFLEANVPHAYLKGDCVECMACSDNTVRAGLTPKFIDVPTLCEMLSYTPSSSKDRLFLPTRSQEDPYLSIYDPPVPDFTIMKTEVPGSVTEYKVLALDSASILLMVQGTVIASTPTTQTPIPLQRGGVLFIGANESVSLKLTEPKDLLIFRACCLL

Ion channel NompC = Ion channel NompC (Danio rerio, UniProt Q7T1G6); assay: Fluorescence counterscreen assay for TRPML3 agonists: dose response cell-based high-throughput screening assay to identify agonists of the transient receptor potential channel N1 (TRPN1). [Related pubchem assays: 1526, 1424, 1448 ]; assay type: functional
Sequence of Ion channel NompC (Q7T1G6 whole entry): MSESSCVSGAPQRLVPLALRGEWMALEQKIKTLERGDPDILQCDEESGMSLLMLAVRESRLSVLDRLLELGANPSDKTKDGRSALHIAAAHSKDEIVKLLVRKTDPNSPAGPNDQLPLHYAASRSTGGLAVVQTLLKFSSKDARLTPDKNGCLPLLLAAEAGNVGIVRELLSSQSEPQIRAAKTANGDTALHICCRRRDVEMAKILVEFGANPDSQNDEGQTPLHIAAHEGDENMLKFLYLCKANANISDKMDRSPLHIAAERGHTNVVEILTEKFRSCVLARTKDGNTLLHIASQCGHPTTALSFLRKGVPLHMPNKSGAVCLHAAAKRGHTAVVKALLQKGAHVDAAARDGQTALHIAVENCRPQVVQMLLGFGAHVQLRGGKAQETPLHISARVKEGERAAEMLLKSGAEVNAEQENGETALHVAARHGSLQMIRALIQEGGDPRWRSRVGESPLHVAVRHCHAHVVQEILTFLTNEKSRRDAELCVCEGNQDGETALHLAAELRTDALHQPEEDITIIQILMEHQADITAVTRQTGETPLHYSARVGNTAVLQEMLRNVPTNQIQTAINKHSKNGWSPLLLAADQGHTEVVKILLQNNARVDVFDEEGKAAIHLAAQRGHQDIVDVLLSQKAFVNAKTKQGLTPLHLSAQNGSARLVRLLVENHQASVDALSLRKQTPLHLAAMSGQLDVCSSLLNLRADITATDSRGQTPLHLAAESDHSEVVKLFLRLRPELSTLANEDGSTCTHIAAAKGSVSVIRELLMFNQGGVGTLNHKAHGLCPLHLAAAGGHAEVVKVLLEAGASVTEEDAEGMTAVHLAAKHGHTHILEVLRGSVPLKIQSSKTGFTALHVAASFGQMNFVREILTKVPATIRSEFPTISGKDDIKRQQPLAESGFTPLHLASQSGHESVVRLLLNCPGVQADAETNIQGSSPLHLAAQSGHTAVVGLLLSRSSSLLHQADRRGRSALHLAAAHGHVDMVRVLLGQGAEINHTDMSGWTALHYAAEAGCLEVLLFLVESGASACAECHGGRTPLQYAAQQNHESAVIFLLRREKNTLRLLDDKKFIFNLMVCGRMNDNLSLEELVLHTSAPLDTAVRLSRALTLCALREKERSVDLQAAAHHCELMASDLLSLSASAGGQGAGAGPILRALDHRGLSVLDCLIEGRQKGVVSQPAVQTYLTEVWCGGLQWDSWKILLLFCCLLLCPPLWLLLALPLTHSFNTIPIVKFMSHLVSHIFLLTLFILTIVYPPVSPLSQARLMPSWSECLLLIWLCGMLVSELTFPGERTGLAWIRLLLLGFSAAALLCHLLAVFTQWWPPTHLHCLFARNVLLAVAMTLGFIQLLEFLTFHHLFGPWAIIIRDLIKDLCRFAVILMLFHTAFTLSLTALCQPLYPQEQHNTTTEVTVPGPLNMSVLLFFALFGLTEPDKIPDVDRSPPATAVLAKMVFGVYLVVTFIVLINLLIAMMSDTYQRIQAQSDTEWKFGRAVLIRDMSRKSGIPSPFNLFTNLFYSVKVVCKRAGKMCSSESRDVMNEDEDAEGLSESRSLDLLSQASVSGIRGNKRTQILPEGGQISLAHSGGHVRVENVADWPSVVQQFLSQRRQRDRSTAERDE

Mucolipin-3 = biological target: T2, Mucolipin-3 (Homo sapiens, UniProt Q8TDD5); assay: Dose response cell-based high-throughput screening assay for agonists of the transient receptor potential channel ML3 (TRPML3). [Related pubchem assays: 1526, 1424, 1448 ]; assay type: functional
T2 sequence (Q8TDD5 whole entry): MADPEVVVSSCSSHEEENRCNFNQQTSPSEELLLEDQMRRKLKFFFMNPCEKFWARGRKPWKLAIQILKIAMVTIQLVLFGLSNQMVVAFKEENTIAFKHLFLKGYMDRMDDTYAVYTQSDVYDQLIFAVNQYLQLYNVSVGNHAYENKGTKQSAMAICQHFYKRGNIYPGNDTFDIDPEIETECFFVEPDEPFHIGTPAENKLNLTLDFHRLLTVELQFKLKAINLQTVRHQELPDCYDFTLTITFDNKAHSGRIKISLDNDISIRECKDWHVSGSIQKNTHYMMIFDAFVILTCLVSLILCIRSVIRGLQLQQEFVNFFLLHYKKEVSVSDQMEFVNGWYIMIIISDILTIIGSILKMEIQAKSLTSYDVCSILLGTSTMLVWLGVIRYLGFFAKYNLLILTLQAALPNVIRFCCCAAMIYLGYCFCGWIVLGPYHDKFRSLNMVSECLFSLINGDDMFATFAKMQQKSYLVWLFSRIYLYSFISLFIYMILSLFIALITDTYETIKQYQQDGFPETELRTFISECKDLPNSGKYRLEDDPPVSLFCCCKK

[10] = biological target: T1, Mannose-6-phosphate isomerase; assay: inhibitors of human PMI, primary screen, biochemical, fluorescence intensity, coupled assay (AID 1209)
[11] = Jurkat T cell cytotoxicity, dose response, cytotoxicity control for P. falciparum gametocyte viability project, luminescence (AID 1117277); assay type: functional, cell-based;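 further: potency reflects loss of cellular ATP meaning fewer viable cells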
[12] = P. falciparum late gametocyte killing, dose response, luminescence (AID 1117278); assay type: functional, cell-based;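 further: gametocytes exposed to compound for 24 hours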
[13] = Luminescence Cell-Based Dose Response HTS to Identify Activators of Luciferase Translation or Activity in H4 […] Cells. [Related pubchem assays: 1829 (Project Summary), 1814 (Primary HTS)]; assay type: functional
H4 = assay: Luminescence Cell-Based Dose Response HTS to Identify Activators of 5'UTR Stem-Loop Driven Prion Protein mRNA Translation in H4 Neuroglioblastoma Cells. [Related pubchem assays: 1829 (Project Summary), 1814 (Primary HTS)]; assay type: functional; settings: Homo sapiens
[14] = Luminescence Cell-Based Dose Confirmation HTS to Identify Activators of 5'UTR Stem-Loop Driven Alpha-Synuclein mRNA Translation in H4 Neuroglioblastoma Cells. [Related pubchem assays: 1829 (Project Summary), 1814 (Primary HTS)]; assay type: functional
[15] = biological target: T3, Epstein-Barr nuclear antigen 1 (Epstein-Barr virus (strain B95-8) (HHV-4) (Human herpesvirus 4), UniProt P03211); assay: EBNA-1 inhibitors, dose response, biochemical, fluorescence polarization, 1536-well (AID 2381); design: species or system human gammaherpesvirus 4;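 further: fluorescence polarization of a Cy5 DNA probe bound by EBNA-1 protein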
T3 sequence (P03211 whole entry): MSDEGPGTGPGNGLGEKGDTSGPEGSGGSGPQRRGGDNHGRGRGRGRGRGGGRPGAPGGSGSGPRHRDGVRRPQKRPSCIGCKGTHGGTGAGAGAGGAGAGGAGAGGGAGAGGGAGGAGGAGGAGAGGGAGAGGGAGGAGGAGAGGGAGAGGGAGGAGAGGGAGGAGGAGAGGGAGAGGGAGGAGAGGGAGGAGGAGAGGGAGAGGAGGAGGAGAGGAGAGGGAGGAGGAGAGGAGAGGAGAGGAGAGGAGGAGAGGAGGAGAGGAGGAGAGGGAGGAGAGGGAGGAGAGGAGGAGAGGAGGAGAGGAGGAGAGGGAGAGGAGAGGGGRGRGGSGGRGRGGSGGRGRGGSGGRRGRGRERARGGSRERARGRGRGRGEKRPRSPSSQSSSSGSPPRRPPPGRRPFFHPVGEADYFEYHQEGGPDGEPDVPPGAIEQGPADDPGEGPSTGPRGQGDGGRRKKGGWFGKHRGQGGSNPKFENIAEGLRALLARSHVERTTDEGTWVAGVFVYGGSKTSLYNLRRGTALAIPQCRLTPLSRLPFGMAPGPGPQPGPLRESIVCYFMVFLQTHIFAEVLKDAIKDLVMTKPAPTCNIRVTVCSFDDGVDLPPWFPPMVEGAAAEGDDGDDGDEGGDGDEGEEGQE

[16] = biological target: T4, Lytic switch protein BZLF1 (Epstein-Barr virus (strain B95-8) (HHV-4) (Human herpesvirus 4), UniProt P03206); assay: EBV ZTA inhibitors, dose response, counter-screen for EBNA-1 inhibitor project, biochemical, fluorescence polarization, Epstein-Barr virus, 1536-well (AID 2377); design: species or system human gammaherpesvirus 4;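 further: fluorescence polarization of Cy5-labelled ZRE DNA probe bound by purified Zta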
T4 sequence (P03206 whole entry): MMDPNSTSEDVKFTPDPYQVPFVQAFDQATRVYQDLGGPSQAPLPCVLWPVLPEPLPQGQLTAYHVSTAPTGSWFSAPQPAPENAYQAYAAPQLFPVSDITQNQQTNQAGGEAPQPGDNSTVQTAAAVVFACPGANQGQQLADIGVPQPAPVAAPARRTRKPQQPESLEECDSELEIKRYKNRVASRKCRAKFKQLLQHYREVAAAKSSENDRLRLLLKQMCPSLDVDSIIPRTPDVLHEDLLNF

In the case of `COc1ccccc1CN1C[C@@H]2N[C@H](C1)[C@@H]2c1ccc(-c2cccnc2)cc1`, the AC50 [1] is reported as 29.6 µM (active), the AC50 [2] is reported as 3.2 µM (active) and the AC50 [3] is reported as 2.1 µM (active). For the same molecule, the AC50 [4] was 1.35 µM (active), the AC50 [5] was 1.78 µM (active) and the AC50 [6] was 28.5 µM (active).

For `N#Cc1c(NCCCO)nc(NCc2ccccc2)c2c1CCN(Cc1ccccc1)C2`, the EC50 [7] was 19.8 µM (active), the EC50 [8] was 11.9 µM (active) and the IC50 [9] was > 50 µM (not active).

With `CCCN(CCC)S(=O)(=O)c1ccc(C(=O)N2CCCc3ccccc32)cc1` the EC50 (Ion channel NompC) was > 29.9 µM (not active) and the EC50 (Mucolipin-3) was 1.33 µM (active).

With `Cc1c(NC(=O)CSc2ccccc2F)c(=O)n(-c2ccccc2)n1C` the IC50 [10] was > 50 µM (not active).

With `N#Cc1c(N)n(-c2ccc(O)cc2)c2nc3ccccc3nc12` the IC50 [11] was > 83.4 µM (inactive) and the IC50 [12] was > 109 µM (inactive).

With `CC1(C)Cc2c(c(N3CCOCC3)nc3snc(N)c23)CO1` the EC50 [13] was > 120 µM (not active), the EC50 (H4) was > 120 µM (not active) and the EC50 [7] was 7.52 µM (active). For the same molecule, the EC50 [14] was 40.9 µM (active) and the EC50 [8] was 7.17 µM (active).

With `C[C@H]1CN([C@@H](C)CO)C(=O)c2c(c3ccccc3n2C)-c2ccccc2CO[C@@H]1CN(C)Cc1cccc2c1OCCCO2` the AC50 [3] was 4.74 µM (active) and the AC50 [6] was 29.8 µM (active).

In the case of `COCC(=O)Nc1ccc(Br)cc1C`, the IC50 [11] is reported as > 83.3 µM (inactive) and the IC50 [12] is reported as > 109 µM (inactive).

For `Cc1ccc(NC(=O)CCn2c(=S)oc3ccccc32)cc1`, the IC50 [15] was 14.2 µM (not active) and the IC50 [16] was > 111 µM (not active).
